# Results: PubChem BioAssay (NCI)
#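 1) Cells in 96-well plates. 2) Compound, 48 h, 5 concentrations. 3) Linear interpolation between surrounding doses. 4) Unreached endpoint = highest concentration. GI50 = concentration required for 50% inhibition of growth. Definition used: TGI = concentration required for complete inhibition of growth.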
# What was measured:
# Assay in all cases: NCI anticancer screen, dose series, 48 h
# SF-539 CNS = system: SF-539 CNS
# RPMI-8226 leukemia = system: RPMI-8226 leukemia
# EKVX NSCLC = system: EKVX NSCLC
# MOLT-4 leukemia = system: MOLT-4 leukemia
# UACC-257 melanoma = system: UACC-257 melanoma
# SK-MEL-28 melanoma = system: SK-MEL-28 melanoma
# M14 melanoma = system: M14 melanoma
# PC-3 prostate = system: PC-3 prostate
# U251 CNS = system: U251 CNS
# HS 578T breast = system: HS 578T breast
# SR leukemia = system: SR leukemia
# OVCAR-4 ovarian = system: OVCAR-4 ovarian
# SN12C renal = system: SN12C renal
# T-47D breast = system: T-47D breast
# HOP-62 NSCLC = system: HOP-62 NSCLC
# MCF7 breast = system: MCF7 breast
# NCI-H23 lung = system: NCI-H23 lung
# RXF 393 renal = system: RXF 393 renal
# SF-295 CNS = system: SF-295 CNS
# SNB-75 CNS = system: SNB-75 CNS
# NCI/ADR-RES ovarian = system: NCI/ADR-RES ovarian
# LOX IMVI melanoma = system: LOX IMVI melanoma
# UO-31 renal = system: UO-31 renal
# SW-620 colon = system: SW-620 colon
# CCRF-CEM leukemia = system: CCRF-CEM leukemia
# 786-0 renal = system: 786-0 renal
# OVCAR-3 ovarian = system: OVCAR-3 ovarian
# NCI-H226 lung = system: NCI-H226 lung
# K-562 leukemia = system: K-562 leukemia
# SK-MEL-5 melanoma = system: SK-MEL-5 melanoma
# BT-549 breast = system: BT-549 breast
# NCI-H460 lung = system: NCI-H460 lung
# HCC-2998 colon = system: HCC-2998 colon
# SK-MEL-2 melanoma = system: SK-MEL-2 melanoma
# MDA-MB-231 breast = system: MDA-MB-231 breast
# SF-268 CNS = system: SF-268 CNS
# KM12 colon = system: KM12 colon
# MALME-3M melanoma = system: MALME-3M melanoma
# DU-145 prostate = system: DU-145 prostate
# ACHN renal = system: ACHN renal
# OVCAR-5 ovarian = system: OVCAR-5 ovarian
# OVCAR-8 ovarian = system: OVCAR-8 ovarian
# A549 NSCLC = system: A549 NSCLC
# HCT-116 colon = system: HCT-116 colon
# UACC-62 melanoma = system: UACC-62 melanoma
# COLO 205 colon = system: COLO 205 colon
# NCI-H522 lung = system: NCI-H522 lung
# A498 renal = system: A498 renal
# HOP-92 NSCLC = system: HOP-92 NSCLC
# HCT-15 colon = system: HCT-15 colon
# HT29 colon = system: HT29 colon
# HL-60(TB) leukemia = system: HL-60(TB) leukemia
# MDA-MB-435 = system: MDA-MB-435
# IGROV1 ovarian = system: IGROV1 ovarian
# CAKI-1 renal = system: CAKI-1 renal
structure (smiles),measurement,setting,value
CNCCNc1nc2ccccc2c2c(=O)c3cccc(C)c3sc12,GI50,SF-539 CNS,6420 nM
same,TGI,SF-539 CNS,12800 nM
same,GI50,RPMI-8226 leukemia,1160 nM
same,TGI,RPMI-8226 leukemia,2960 nM
same,GI50,EKVX NSCLC,2730 nM
same,TGI,EKVX NSCLC,9870 nM
same,GI50,MOLT-4 leukemia,1280 nM
same,TGI,MOLT-4 leukemia,3420 nM
same,GI50,UACC-257 melanoma,944 nM
same,TGI,UACC-257 melanoma,1950 nM
same,GI50,SK-MEL-28 melanoma,4080 nM
same,TGI,SK-MEL-28 melanoma,10500 nM
same,GI50,M14 melanoma,853 nM
same,TGI,M14 melanoma,1700 nM
same,GI50,PC-3 prostate,1550 nM
same,TGI,PC-3 prostate,8700 nM
same,GI50,U251 CNS,968 nM
same,TGI,U251 CNS,2250 nM
same,GI50,HS 578T breast,5070 nM
same,TGI,HS 578T breast,14200 nM
same,GI50,SR leukemia,940 nM
same,TGI,SR leukemia,2510 nM
same,GI50,OVCAR-4 ovarian,2100 nM
same,TGI,OVCAR-4 ovarian,8750 nM
same,GI50,SN12C renal,2040 nM
same,TGI,SN12C renal,8370 nM
same,GI50,T-47D breast,876 nM
same,TGI,T-47D breast,2250 nM
same,GI50,HOP-62 NSCLC,1360 nM
same,TGI,HOP-62 NSCLC,8810 nM
same,GI50,MCF7 breast,793 nM
same,TGI,MCF7 breast,1820 nM
same,GI50,NCI-H23 lung,5130 nM
same,TGI,NCI-H23 lung,11700 nM
same,GI50,RXF 393 renal,3080 nM
same,TGI,RXF 393 renal,9720 nM
same,GI50,SF-295 CNS,5540 nM
same,TGI,SF-295 CNS,12100 nM
same,GI50,SNB-75 CNS,1140 nM
same,TGI,SNB-75 CNS,8490 nM
same,GI50,NCI/ADR-RES ovarian,1760 nM
same,TGI,NCI/ADR-RES ovarian,7350 nM
same,GI50,LOX IMVI melanoma,791 nM
same,TGI,LOX IMVI melanoma,1490 nM
same,GI50,UO-31 renal,790 nM
same,TGI,UO-31 renal,7120 nM
same,GI50,SW-620 colon,915 nM
same,TGI,SW-620 colon,1920 nM
same,GI50,CCRF-CEM leukemia,1280 nM
same,TGI,CCRF-CEM leukemia,3850 nM
same,GI50,786-0 renal,4070 nM
same,TGI,786-0 renal,11500 nM
same,GI50,OVCAR-3 ovarian,1470 nM
same,TGI,OVCAR-3 ovarian,5270 nM
same,GI50,NCI-H226 lung,7190 nM
same,TGI,NCI-H226 lung,16700 nM
same,GI50,K-562 leukemia,1040 nM
same,TGI,K-562 leukemia,2330 nM
same,GI50,SK-MEL-5 melanoma,6140 nM
same,TGI,SK-MEL-5 melanoma,12600 nM
same,GI50,BT-549 breast,5340 nM
same,TGI,BT-549 breast,12100 nM
same,GI50,NCI-H460 lung,917 nM
same,TGI,NCI-H460 lung,2050 nM
same,GI50,HCC-2998 colon,824 nM
same,TGI,HCC-2998 colon,1650 nM
same,GI50,SK-MEL-2 melanoma,1280 nM
same,TGI,SK-MEL-2 melanoma,3360 nM
same,GI50,MDA-MB-231 breast,1020 nM
same,TGI,MDA-MB-231 breast,3610 nM
same,GI50,SF-268 CNS,3530 nM
same,TGI,SF-268 CNS,11400 nM
same,GI50,KM12 colon,1110 nM
same,TGI,KM12 colon,2880 nM
same,GI50,MALME-3M melanoma,5160 nM
same,TGI,MALME-3M melanoma,11700 nM
same,GI50,DU-145 prostate,1890 nM
same,TGI,DU-145 prostate,6520 nM
same,GI50,ACHN renal,1700 nM
same,TGI,ACHN renal,7110 nM
same,GI50,OVCAR-5 ovarian,3910 nM
same,TGI,OVCAR-5 ovarian,10600 nM
same,GI50,OVCAR-8 ovarian,1940 nM
same,TGI,OVCAR-8 ovarian,7650 nM
same,GI50,A549 NSCLC,1820 nM
same,TGI,A549 NSCLC,7500 nM
same,GI50,HCT-116 colon,818 nM
same,TGI,HCT-116 colon,1570 nM
same,GI50,UACC-62 melanoma,1150 nM
same,TGI,UACC-62 melanoma,3390 nM
same,GI50,COLO 205 colon,921 nM
same,TGI,COLO 205 colon,1920 nM
same,GI50,NCI-H522 lung,1300 nM
same,TGI,NCI-H522 lung,4420 nM
same,GI50,A498 renal,1070 nM
same,TGI,A498 renal,3940 nM
same,GI50,HOP-92 NSCLC,1690 nM
same,TGI,HOP-92 NSCLC,10800 nM
same,GI50,HCT-15 colon,1130 nM
same,TGI,HCT-15 colon,2670 nM
same,GI50,HT29 colon,887 nM
same,TGI,HT29 colon,1920 nM
same,GI50,HL-60(TB) leukemia,1060 nM
same,TGI,HL-60(TB) leukemia,2200 nM
same,GI50,MDA-MB-435,1050 nM
same,TGI,MDA-MB-435,2220 nM
same,GI50,IGROV1 ovarian,1290 nM
same,TGI,IGROV1 ovarian,8060 nM
same,GI50,CAKI-1 renal,1160 nM
same,TGI,CAKI-1 renal,6730 nM
